Source: patent US5413915A (priority 1991, dated 1995)
Read-outs that look alike come from different tables or passages of the source. Marks after values point to notes of the source that are not given here.

Tests used:
rat liver microsomes [1] = assay type: biochemical; parameters: key: Positive: the development of coloration denoted a positive response; Negative: the absence of such coloration denoted a negative response
Salmonella typhimurium = details: cited from earlier work
[2] = in vivo; cited from earlier work
[3] = in vivo; cited from earlier work; remark: listed apart in the source
rat liver microsomes [4] = assay type: biochemical; parameters: unit not given here
rat liver microsomes [5] = assay: Color development in detection elements with different leuco dyes (Table 2); assay type: biochemical; details: applied dose 10 μmol (formaldehyde 1 μmol); for New Color Development, NBTZ: unexposed control also Black
Method: Solutions containing 0.5 mM of the respective dyes in 0.1 M TRIS buffer, pH=7.4 (except for nitro blue tetrazolium, 5.0 mM in 50% ethanolic TRIS, pH=7.4) were bleached with a few crystals of sodium sulfite or sodium dithionite, then plied in 0.02 mL aliquots as test spots on a clear sheet of transparency film. Spontaneous color development in air was noted (Table 2). Subsequently, a suspension of rat liver microsomes containing 1 mM NADPH and 1 mg/mL gelatin in 0.1 M TRIS-MOPS buffer (pH=7.7) was plied in 0.05 mL aliquots over the dried leuco-dye test spots. After drying, color development condition was noted, and the test spots saved for exposure tests to chemical substances (Table 2). Exposures were carried out by layering 0.01 mL of 0.1-1.0 M solutions of test chemical substances onto the test spots, and changes in color noted over time.

[6] = Direct reaction of chemicals with the indicator leuco dye; details: without metabolic activation
[7] = cited from earlier work; for E1/2: literature (Kemula and Axt); for Em7: midpoint redox potential

Row | Molecule | Invention Response (rat liver microsomes [1]) | Mutagenicity (Salmonella typhimurium) | Teratogen Activity [2] | Carcinogenic Status [3] | Tumorigen Activity [3] | Detector Response, threshold dose (rat liver microsomes [4]) | other results
1 | CC(=O)O [Acetate] | Negative | - | - | Negative | - |  | 
2 | Nc1ccccc1 [Aniline] | Positive | + | - | Possible | +^e | 5 | 
3 | CC(Cl)(Cl)Cl [CH3 CCl3] |  |  |  |  |  |  | New Color Development, Methyl Green leuco dye (rat liver microsomes [5]): None; New Color Development, Methyl Violet leuco dye (rat liver microsomes [5]): None^a,b; New Color Development, Naphthol Blue-Black leuco dye (rat liver microsomes [5]): None; New Color Development, Nile Blue A leuco dye (rat liver microsomes [5]): None; New Color Development, Safranin O leuco dye (rat liver microsomes [5]): None; New Color Development, NBTZ (rat liver microsomes [5]): Black
4 | [Cd+2] [Cd(II)] |  | + | + |  |  |  | Dose-response shift, BNF-induced detection elements versus uninduced controls (cytochrome P450IA1; compared with the shift seen for hydrazine): less significantly; Tumorigen Activity, assignment based on IARC reports [3]: +
5 | ClC1=C(Cl)C2(Cl)C3C(Cl)C(Cl)CC3C1(Cl)C2(Cl)Cl (stereo not shown) [Chlordane] | Positive |  |  | Positive |  |  | 
6 | O=c1ccc2ccccc2o1 [Coumarin] | Positive |  |  | Positive |  |  | 
7 | CN(C)C(=O)Nc1ccc(Cl)c(Cl)c1 [DCMU, 3(3,4-Dichlorophenyl)-1,1,dimethylurea] | Positive |  | + | Teratogen only | +^e |  | 
8 | CC(C)[C@@H](C)/C=C/[C@@H](C)[C@H]1CC[C@H]2C3=CC=C4C[C@@H](O)CC[C@]4(C)[C@H]3CC[C@]12C [Ergosterol] |  | - | + |  | - | 0.1 | New Color Development, Methyl Green leuco dye (rat liver microsomes [5]): Green; New Color Development, Methyl Violet leuco dye (rat liver microsomes [5]): Violet; New Color Development, Naphthol Blue-Black leuco dye (rat liver microsomes [5]): None; New Color Development, Nile Blue A leuco dye (rat liver microsomes [5]): Blue; New Color Development, Safranin O leuco dye (rat liver microsomes [5]): Pink; New Color Development, NBTZ (rat liver microsomes [5]): Black
9 | C=O [Formaldehyde] | Positive | - | + | Probable | + | 0.01 | Mutagenicity, direct-acting mutagen (Salmonella typhimurium): +; Direct reaction with the indicator leuco dye [6]: react directly with the indicator dye; New Color Development, Methyl Violet leuco dye (rat liver microsomes [5]): Violet; New Color Development, Naphthol Blue-Black leuco dye (rat liver microsomes [5]): None; New Color Development, Nile Blue A leuco dye (rat liver microsomes [5]): Blue; New Color Development, Safranin O leuco dye (rat liver microsomes [5]): None; New Color Development, NBTZ (rat liver microsomes [5]): Black
10 | OO [H2 O2] |  | + | - |  |  | 1-2 | Direct reaction with the indicator leuco dye [6]: react directly with the indicator dye; Tumorigen Activity, assignment based on IARC reports [3]: +
11 | O=C(O)CI [ICH2 COOH, iodoacetic acid] |  |  |  |  |  |  | Direct reaction with the indicator leuco dye [6]: react with the leuco dye to give colored products; Direct reaction with the indicator leuco dye ([6]; listed as iodoacetate): react directly with the indicator dye; New Color Development, Methyl Green leuco dye (rat liver microsomes [5]): Green; New Color Development, Methyl Violet leuco dye (rat liver microsomes [5]): Purple; New Color Development, Naphthol Blue-Black leuco dye (rat liver microsomes [5]): None; New Color Development, Safranin O leuco dye (rat liver microsomes [5]): None; New Color Development, NBTZ (rat liver microsomes [5]): Black
12 | CC1=CC(=O)c2ccccc2C1=O [Menadione] | Positive | + | + | Possible | +^e | 0.01 | New Color Development, Methyl Green leuco dye (rat liver microsomes [5]): None; New Color Development, Methyl Violet leuco dye (rat liver microsomes [5]): None^a,b; New Color Development, Naphthol Blue-Black leuco dye (rat liver microsomes [5]): None^b; New Color Development, Nile Blue A leuco dye (rat liver microsomes [5]): None^b; New Color Development, Safranin O leuco dye (rat liver microsomes [5]): None; New Color Development, NBTZ (rat liver microsomes [5]): Black
13 | CN(C)c1ccc(C(=C2C=CC(=[N+](C)C)C=C2)c2ccc([N+](C)(C)C)cc2)cc1.[Cl-].[Cl-] [Methyl Green, methyl green] |  |  |  |  |  |  | E1/2 [7]: approximately -0.55 V
14 | CN(C)c1ccc2nc3ccc(=[N+](C)C)cc-3sc2c1 [Methylene Blue (USP), Methylene Blue] |  | + | - |  | - |  | Em7 [7]: +0.01 V
15 | c1ccc(-c2cnc(-c3ccc(-c4ncc(-c5ccccc5)o4)cc3)o2)cc1 [POPOP] | Negative |  |  | Negative |  |  | 
16 | Oc1ccccc1 [Phenol] | Positive |  | - | Possible | - | 0.02 | Dose-response shift, BNF-induced detection elements versus uninduced controls (cytochrome P450IA1): less significantly
17 | Nc1c(Cl)c(Cl)nc(C(=O)O)c1Cl [Picloram (ind.), Picloram] |  | - | + |  |  | 0.01 | Tumorigen Activity, assignment based on NCI/NTP carcinogenesis bioassay results [3]: +
18 | O=C1C=CC(=O)C=C1.Oc1ccc(O)cc1 [Quinhydrone] |  | - | - |  | +^e | 0.1-0.2 | 
19 | Cc1cc2nc3cc(C)c(N)cc3[n+](-c3ccccc3)c2cc1N.[Cl-] [Safranin O] |  |  |  |  |  |  | Em7 [7]: -0.28 V
20 | C=Cc1ccccc1 [Styrene] | Negative |  |  | Negative |  |  | 
21 | OC[C@H]1O[C@@](CO)(O[C@H]2O[C@H](CO)[C@@H](O)[C@H](O)[C@H]2O)[C@@H](O)[C@@H]1O [Sucrose] | Negative |  |  | Negative |  |  | 
22 | ClC=C(Cl)Cl [Trichloroethylene] |  | + | + |  | + | 150 | Dose-response shift, BNF-induced detection elements versus uninduced controls (cytochrome P450IA1): less significantly
23 | Cc1cccc(O)c1 [m-Cresol] |  | - | - |  | - | 2 | 
24 | CN(C)c1ccc(C(=C2C=CC(=[N+](C)C)C=C2)c2ccccc2)cc1 [malachite green] |  |  |  |  |  |  | E1/2 [7]: -0.55 V
25 | O=S([O-])S(=O)[O-].[Na+].[Na+] [sodium dithionite] |  |  |  |  |  |  | Em7 [7]: < -0.5 V
26 | Copper(II) |  | - | + |  | +/- | 5 | 
27 | Cr(VI) |  | + | - |  | +^e | 0.1 | 
28 | Nile Blue A |  |  |  |  |  |  | Em7 [7]: -0.12 V
29 | dichromate |  |  |  |  |  |  | Direct reaction with the indicator leuco dye [6]: react directly with the indicator dye
30 | methyl violet |  |  |  |  |  |  | E1/2 [7]: approximately -0.75 V
